Measurements from PMC2362906, “Effects of new 17α-hydroxylase/C17,20-lyase inhibitors on LNCaP prostate cancer cell growth in vitro and in vivo” (British Journal of Cancer, 1999).
Entries after “also recorded” stand apart in the source; their conditions may differ.

Experiments:
LNCaP cells [1] = assay: Testosterone-stimulated wild-type LNCaP cell growth; assay type: cell-based, human; details: 0.1 nM testosterone, 0.5-5.0 μM compound, 9 days
Source text: (§1) Prostate cancer is the most common malignancy and the second leading cause of cancer-related deaths among men in the US and the UK (Shibata et al, 1998). […] Steroidal 17-hydroxylase/C17,20 -lyase (P450c17) (EC 1.14.99.0) was selected as the target enzyme for inhibition, as this is a key regulatory enzyme of androgen synthesis. P450c17 catal- yses two sequential reactions in the steroid biosynthetic pathway and converts pregnenolone and progesterone to the C-19 andro- gens, dehydroepiandrosterone and androstenedione respectively. This enzyme has an identical amino acid sequence in testicular and adrenal tissues (Chung et al, 1987). […] In order to evaluate the effectiveness of these inhibitors we developed a multi-step system, which utilized the LNCaP human prostate cancer cell line. LNCaP cells remain the only androgen receptor (AR)-positive prostate cancer cell line, that can be readily grown in tissue culture (Horoszewicz et al, 1983). These cells respond to androgens with increased cell proliferation and elevated expression of prostate specific antigen (PSA) (Berns et al, 1993). LNCaP cells at early passages are not only androgen-responsive, but also androgen- dependent (Pousette et al, 1997). This is similar to the situation in most tumours of prostatic cancer patients, which are initially highly responsive and dependent on androgens. […] Therefore, we employed LNCaP cells as a model for evaluating the effectiveness of our new inhibitors of androgen synthesis. In this study the compounds selected for evaluation were two groups of azolyl steroids. […] Here we report on the application of LNCaP-CYP17-transfected cells for determining the inhibitory potencies of the new compounds against the P450c17 enzyme. […] We designed and evaluated two groups of azolyl steroids: 5-non-competitive inhibitors (5NCIs), VN/63-1, VN/85-1, VN/87-1 and their corresponding 4 derivatives (4NCIs), VN/107-1, VN/108-1 and VN/109-1. The human P450c17 gene was transfected into LNCaP human prostate cancer cells, and the resultant LNCaP- CYP17 cells were utilized to evaluate the inhibitory potency of the new azolyl steroids. […] We further evaluated our inhibitors in male severe combined immuno- deficient mice bearing LNCaP tumour xenografts. […] We also utilized wild-type LNCaP prostatic carcinoma cells for evaluating the direct effects of new azolyl steroids on proliferation of these cells in vitro and in vivo. MATERIALS AND METHODS Materials The human prostate cancer cell line LNCaP was obtained from the American Type Culture Collection (Rockville, MD, USA). RPMI- 1640 medium, trypsin-EDTA (0.25%/0.02%), penicillin/strepto- mycin (P/S), geniticin (G418), and LipofectAMINE were from Gibco-BRL (Grand Island, NY, USA). Fetal bovine serum (FBS) was obtained from Summit Biotechnology Inc. (Fort Collins, CO, USA) and steroid-free FBS was prepared as described previously (Klus et al, 1996). Phenol red free IMEM and trypsin-versine were purchased from Biofluids Inc. (Rockville, MD, USA). Chloroform and acetonitrile were purchased from JT Baker, Inc (Phillipsburg, NJ, USA). Hydroxypropyl cellulose (HPC) was purchased from Sigma Chemical Co. (St Louis, MO, USA). The PSA enzyme- linked immunusorbent assay (ELISA) kit was from DSL Inc. (Webster, TX, USA). Matrigel was generously supplied by Dr Hynda Kleinman (NIH, Bethesda, MD, USA). Inhibitors of androgen synthesis: VN/63-1, VN/85-1, VN/87-1, VN/107-1, VN/108-1 and VN/109-1 were synthesized in our labo- ratory as previously described (Njar et al, 1998). […] Metribolone [17-methyl-3 H]-R1881 ([3 H]-R1881: specific activity 86 Ci mmol-1 ) was purchased from Dupont NEN (Boston, MA, USA).

LNCaP cells [2] = assay: DHT-stimulated wild-type LNCaP cell growth; assay type: cell-based, human; details: 0.03 nM DHT, 9 days
Source text: as §1

LNCaP cells [3] = assay: LNCaP cell growth in steroid-free medium; assay type: cell-based, human
Source text: Prostate cancer is the most common malignancy and the second leading cause of cancer-related deaths among men in the US and the UK (Shibata et al, 1998). […] Steroidal 17-hydroxylase/C17,20 -lyase (P450c17) (EC 1.14.99.0) was selected as the target enzyme for inhibition, as this is a key regulatory enzyme of androgen synthesis. P450c17 catal- yses two sequential reactions in the steroid biosynthetic pathway and converts pregnenolone and progesterone to the C-19 andro- gens, dehydroepiandrosterone and androstenedione respectively. This enzyme has an identical amino acid sequence in testicular and adrenal tissues (Chung et al, 1987). […] In order to evaluate the effectiveness of these inhibitors we developed a multi-step system, which utilized the LNCaP human prostate cancer cell line. LNCaP cells remain the only androgen receptor (AR)-positive prostate cancer cell line, that can be readily grown in tissue culture (Horoszewicz et al, 1983). These cells respond to androgens with increased cell proliferation and elevated expression of prostate specific antigen (PSA) (Berns et al, 1993). LNCaP cells at early passages are not only androgen-responsive, but also androgen- dependent (Pousette et al, 1997). This is similar to the situation in most tumours of prostatic cancer patients, which are initially highly responsive and dependent on androgens. […] Therefore, we employed LNCaP cells as a model for evaluating the effectiveness of our new inhibitors of androgen synthesis. In this study the compounds selected for evaluation were two groups of azolyl steroids. […] Here we report on the application of LNCaP-CYP17-transfected cells for determining the inhibitory potencies of the new compounds against the P450c17 enzyme. […] We designed and evaluated two groups of azolyl steroids: 5-non-competitive inhibitors (5NCIs), VN/63-1, VN/85-1, VN/87-1 and their corresponding 4 derivatives (4NCIs), VN/107-1, VN/108-1 and VN/109-1. The human P450c17 gene was transfected into LNCaP human prostate cancer cells, and the resultant LNCaP- CYP17 cells were utilized to evaluate the inhibitory potency of the new azolyl steroids. […] We further evaluated our inhibitors in male severe combined immuno- deficient mice bearing LNCaP tumour xenografts. […] We also utilized wild-type LNCaP prostatic carcinoma cells for evaluating the direct effects of new azolyl steroids on proliferation of these cells in vitro and in vivo. MATERIALS AND METHODS Materials The human prostate cancer cell line LNCaP was obtained from the American Type Culture Collection (Rockville, MD, USA). RPMI- 1640 medium, trypsin-EDTA (0.25%/0.02%), penicillin/strepto- mycin (P/S), geniticin (G418), and LipofectAMINE were from Gibco-BRL (Grand Island, NY, USA). […]

LNCaP tumour xenografts = assay: LNCaP tumour xenograft growth in male SCID mice; assay type: in vivo; details: 50 mg kg-1 day-1, 28 days
Source text: as §1

serum testosterone = assay: Serum testosterone (RIA) in SCID mice; assay type: in vivo, male SCID mice; details: 28 days of treatment, 50 mg kg-1 day-1
Source text: as §1

serum DHT = assay: Serum DHT (RIA) in SCID mice; assay type: in vivo, male SCID mice; details: 28 days of treatment, 50 mg kg-1 day-1
Source text: as §1

[4] = biological target: human prostatic 5-reductase; design: method as in Njar et al, 1998; details: human prostatic microsomes; reported previously; ref Njar et al, 1998; cited from earlier work
[5] = biological target: T1, human 17α-hydroxylase/C17,20-lyase (P450c17) expressed in LNCaP-CYP17 cells (Homo sapiens, UniProt P05093); assay: [3H]-acetic acid releasing assay (AARA) with LNCaP-CYP17 cells; assay type: cell-based; details: LNCaP-CYP17 cells, 7 μM [21-3H]17-OHP5, 16 h; mean ± s.e.m., three experiments
T1 sequence (P05093 9-508 limits assumed): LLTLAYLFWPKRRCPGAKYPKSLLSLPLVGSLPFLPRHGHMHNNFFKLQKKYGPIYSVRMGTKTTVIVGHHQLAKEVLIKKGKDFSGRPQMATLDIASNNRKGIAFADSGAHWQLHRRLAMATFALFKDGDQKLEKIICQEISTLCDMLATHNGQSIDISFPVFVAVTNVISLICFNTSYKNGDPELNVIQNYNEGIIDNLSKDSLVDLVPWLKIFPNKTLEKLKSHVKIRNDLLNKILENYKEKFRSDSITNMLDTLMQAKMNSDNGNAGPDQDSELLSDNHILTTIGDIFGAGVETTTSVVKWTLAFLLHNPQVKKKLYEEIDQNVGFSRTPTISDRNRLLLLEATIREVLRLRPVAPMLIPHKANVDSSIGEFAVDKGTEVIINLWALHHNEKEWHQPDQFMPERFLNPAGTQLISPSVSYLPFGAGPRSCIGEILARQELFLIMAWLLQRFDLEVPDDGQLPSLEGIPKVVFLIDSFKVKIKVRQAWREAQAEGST

serum PSA = assay: Serum PSA (ELISA) in LNCaP tumour-bearing SCID mice; assay type: in vivo, male SCID mice; details: 50 mg kg-1 day-1, 28 days
Source text: Prostate cancer is the most common malignancy and the second leading cause of cancer-related deaths among men in the US and the UK (Shibata et al, 1998). […] Steroidal 17-hydroxylase/C17,20 -lyase (P450c17) (EC 1.14.99.0) was selected as the target enzyme for inhibition, as this is a key regulatory enzyme of androgen synthesis. P450c17 catal- yses two sequential reactions in the steroid biosynthetic pathway and converts pregnenolone and progesterone to the C-19 andro- gens, dehydroepiandrosterone and androstenedione respectively. This enzyme has an identical amino acid sequence in testicular and adrenal tissues (Chung et al, 1987). […] In order to evaluate the effectiveness of these inhibitors we developed a multi-step system, which utilized the LNCaP human prostate cancer cell line. LNCaP cells remain the only androgen receptor (AR)-positive prostate cancer cell line, that can be readily grown in tissue culture (Horoszewicz et al, 1983). These cells respond to androgens with increased cell proliferation and elevated expression of prostate specific antigen (PSA) (Berns et al, 1993). LNCaP cells at early passages are not only androgen-responsive, but also androgen- dependent (Pousette et al, 1997). This is similar to the situation in most tumours of prostatic cancer patients, which are initially highly responsive and dependent on androgens. […] Therefore, we employed LNCaP cells as a model for evaluating the effectiveness of our new inhibitors of androgen synthesis. In this study the compounds selected for evaluation were two groups of azolyl steroids. […] Here we report on the application of LNCaP-CYP17-transfected cells for determining the inhibitory potencies of the new compounds against the P450c17 enzyme. […] We designed and evaluated two groups of azolyl steroids: 5-non-competitive inhibitors (5NCIs), VN/63-1, VN/85-1, VN/87-1 and their corresponding 4 derivatives (4NCIs), VN/107-1, VN/108-1 and VN/109-1. The human P450c17 gene was transfected into LNCaP human prostate cancer cells, and the resultant LNCaP- CYP17 cells were utilized to evaluate the inhibitory potency of the new azolyl steroids. […] We further evaluated our inhibitors in male severe combined immuno- deficient mice bearing LNCaP tumour xenografts. […] We also utilized wild-type LNCaP prostatic carcinoma cells for evaluating the direct effects of new azolyl steroids on proliferation of these cells in vitro and in vivo. MATERIALS AND METHODS Materials The human prostate cancer cell line LNCaP was obtained from the American Type Culture Collection (Rockville, MD, USA). RPMI- 1640 medium, trypsin-EDTA (0.25%/0.02%), penicillin/strepto- mycin (P/S), geniticin (G418), and LipofectAMINE were from Gibco-BRL (Grand Island, NY, USA). Fetal bovine serum (FBS) was obtained from Summit Biotechnology Inc. (Fort Collins, CO, USA) and steroid-free FBS was prepared as described previously (Klus et al, 1996). Phenol red free IMEM and trypsin-versine were purchased from Biofluids Inc. (Rockville, MD, USA). Chloroform and acetonitrile were purchased from JT Baker, Inc (Phillipsburg, NJ, USA). Hydroxypropyl cellulose (HPC) was purchased from Sigma Chemical Co. (St Louis, MO, USA). The PSA enzyme- linked immunusorbent assay (ELISA) kit was from DSL Inc. (Webster, TX, USA). Matrigel was generously supplied by Dr Hynda Kleinman (NIH, Bethesda, MD, USA). […]

[6] = Table 2, first experiment, control 1.043
[7] = Table 3, second experiment, control 0.205
[8] = Table 2, first experiment, control 243.8
[9] = Table 3, second experiment, control 239.2

With CC(=O)N1CCN(c2ccc(OCC3COC(Cn4ccnc4)(c4ccc(Cl)cc4Cl)O3)cc2)CC1 (centres unmarked) [Ketoconazole, reference compound] the “Effect on testosterone-stimulated cell growth (words)” value (LNCaP cells [1]) was “stimulate cell proliferation at low concentrations”, the “Effect on testosterone-stimulated cell growth (words)” value (LNCaP cells [1]; listed as ketoconazole) was “biphasic growth responses” and the “Stimulation of cell growth compared to DHT-treated cells” value (LNCaP cells [2]) was 10-20%. The “Stimulation of LNCaP cell growth in steroid-free media” value (LNCaP cells [3]; high concentrations (2.5 and 5.0 μM), 9 days) was 30-40%, the “Effect on tumour growth (words)” value (LNCaP tumour xenografts; second experiment) was “Neither VN/63-1, VN/107 nor ketoconazole had any appreciable effects” and the “Serum Testosterone” value (serum testosterone; [6]) was 1.526 ng/mL. The “Serum Testosterone” value (serum testosterone; [7]) was 0.298 ng/mL, the “Serum DHT” value (serum DHT; [8]) was 224.3 pg/mL and the “Serum DHT” value (serum DHT; [9]) was 218.0 pg/mL. For the same compound, the IC50 [4] was > 5000 nM.
For CC(C)(C)NC(=O)[C@H]1CC[C@H]2[C@@H]3CC[C@H]4NC(=O)C=C[C@]4(C)[C@H]3CC[C@]12C [Finasteride, reference compound], the IC50 [5] was > 5000 nM, the inhibition at 5 µM (LNCaP cells [3]; Homo sapiens, LNCaP, 5 μM concentration) was 25% and the “Inhibition of LNCaP cell growth in steroid-free media” value (LNCaP cells [3]; concentrations of 1.0-5.0 μM, 9 days) was 20-30%. For the same compound, the “Reduction of tumour weights compared to vehicle-treated mice” value (LNCaP tumour xenografts; first experiment) was 22%, the “Inhibition of LNCaP tumour growth (tumour volume)” value (LNCaP tumour xenografts; second experiment) was 29% and the “Reduction of tumour weights” value (LNCaP tumour xenografts; second experiment) was 28%. For the same compound, the “Serum PSA levels versus control” value (serum PSA; first experiment) was “significantly lower”, the “Serum PSA levels versus control” value (serum PSA; second experiment) was “significantly lower” and the “Serum Testosterone” value (serum testosterone; [6]) was 1.389 ng/mL. For the same compound, the “Serum Testosterone” value (serum testosterone; [7]) was 0.638 ng/mL, the “Serum DHT” value (serum DHT; [8]) was 137.0 pg/mL and the “Serum DHT” value (serum DHT; [9]) was 223.4 pg/mL. For the same compound, the IC50 [4] was 33 nM.
In the case of C[C@]12CCC(=O)C=C1CC[C@@H]1[C@@H]2CC[C@]2(C)C(n3ccnn3)=CC[C@@H]12 [VN/109-1], the IC50 [5] is reported as 5.39 nM, the “Effect on testosterone-stimulated cell growth (words)” value (LNCaP cells [1]) is reported as “moderate inhibitory effect; also recorded: biphasic growth responses” and the “Effect on DHT-induced cell proliferation” value (LNCaP cells [2]; 0.5-5.0 μM compound) is reported as “least effective inhibitors of androgen-induced cell pro- liferation”. The “Stimulation of LNCaP tumour growth compared to control mice” value (LNCaP tumour xenografts; second experiment) was 110%, the “Serum DHT” value (serum DHT; [9]) was 228.4 pg/mL and the IC50 [4] was 198 nM.
